Results taken from patent US8871946B2, “Benzimidazole-4-carboxamide derivatives, their preparation methods, pharmaceutical compositions and their uses” (Zhejiang Medicine Co., Ltd. Xinchang Pharmaceutical Factory, priority 2009, dated 2014).
Values after ≈ are worked out from the molar mass of the structure shown.

System: coxsackie B3 viruses
Assay: Measures of anti-coxsackie B3 viruses activity of the compounds in Vero cells
Format: cell-based
Settings: half inhibitory concentration for viruses
From the text: Measures of Anti-Coxsackie B3 Viruses Activity of the Compounds The products are applied for measures of antivirus properties of Vero cells. Refer to the results of Table 3: datum of anti-coxsackie B3 viruses activities of some compounds. […] IC50 indicates half inhibitory concentration for viruses. RBV indicates triazole nucleoside, is also called ribavirin, virazole.

Row | Compound | IC50 [µg/mL]
1 | 2-(2-N-methyl-4-N- methylpiperazinyl)-1H- benzimidazole-4-(N-o- fluorophenyl)amide | 8.9
2 | O=C(Nc1ccc(O)cc1)c1cccc2[nH]c(-c3ccc(O)c(O)c3O)nc12 [2-(2,3,4-trihydroxyphenyl)-1H-benzimidazole-4-(N-p-hydroxyphenyl)amide] | 11.2 (≈ 29.7 µM)
3 | CN1CCN(C)C(c2nc3c(C(=O)Nc4ccc(N)cc4)cccc3[nH]2)C1 (centres unmarked) [2-(2-N-methyl-4-N-methylpiperazinyl)-1H-benzimidazole-4-(N-p-aminophenyl)amide] | 3.5 (≈ 9.6 µM)
4 | O=C(Nc1ccccc1F)c1cccc2[nH]c(-c3cnc(-c4ccccc4)nc3)nc12 [2-(2-phenyl-5-pyrimidinyl)-1H-benzimidazole-4-(N-o-fluorophenyl)amide] | 12.6 (≈ 30.8 µM)
5 | O=C(Nc1ccccc1O)c1cccc2[nH]c(-c3cnc(-c4ccccc4)nc3)nc12 [2-(2-phenyl-5-pyrimidinyl)-1H-benzimidazole-4-(N-o-hydroxyphenyl)amide] | 13.2 (≈ 32.4 µM)
6 | Nc1ccc(NC(=O)c2cccc3[nH]c(-c4cnc(-c5ccccc5)nc4)nc23)cc1 [2-(2-phenyl-5-pyrimidinyl)-1H-benzimidazole-4-(N-p-aminophenyl)amide] | 15.2 (≈ 37.4 µM)
7 | O=C(Nc1ccccc1O)c1cccc2[nH]c(-c3cnccn3)nc12 [2-(2-pyrazinyl)-1H -benzimidazole-4-(N-o-hydroxyphenyl)amide] | 3.5 (≈ 10.6 µM)
8 | O=C(Nc1ccccc1F)c1cccc2[nH]c(-c3cnccn3)nc12 [2-(2-pyrazinyl)-1H-benzimidazole-4-(N-o-fluorophenyl)amide] | 6.5 (≈ 19.5 µM)
9 | Nc1ccc(NC(=O)c2cccc3[nH]c(-c4cnccn4)nc23)cc1 [2-(2-pyrazinyl)-1H-benzimidazole-4-(N-p-aminophenyl)amide] | 4.2 (≈ 12.7 µM)
10 | CC(NC(=O)c1cccc2[nH]c(-c3ccccn3)nc12)C(O)c1ccc(Cl)cc1 (centres unmarked) [2-(2-pyridyl)-1H-benzimidazole-4-[N-(1-methyl-2-p-chlorophenylhydroxyethyl)]amide] | 4.115 (≈ 10.1 µM)
11 | O=C(Nc1ccccc1F)c1cccc2[nH]c(-c3ncccn3)nc12 [2-(2-pyrimidinyl)-1H-benzimidazole-4-(N-o-fluorophenyl)amide] | 8.8 (≈ 26.4 µM)
12 | O=C(Nc1ccccc1O)c1cccc2[nH]c(-c3ncccn3)nc12 [2-(2-pyrimidinyl)-1H-benzimidazole-4-(N-o-hydroxyphenyl)amide] | 7.8 (≈ 23.5 µM)
13 | Nc1ccc(NC(=O)c2cccc3[nH]c(-c4ncccn4)nc23)cc1 [2-(2-pyrimidinyl)-1H-benzimidazole-4-(N-p-aminophenyl)amide] | 9.8 (≈ 29.7 µM)
14 | O=C(Nc1ccccc1F)c1cccc2[nH]c(-c3ccc[nH]3)nc12 [2-(2-pyrrolyl)-1H-benzimidazole-4-(N-o-fluorophenyl)amide] | 9.2 (≈ 28.7 µM)
15 | O=C(Nc1ccccc1F)c1cccc2[nH]c(-c3ccc4ccccc4n3)nc12 [2-(2-quinolinyl)-1H-benzimidazole-4-(N-o-fluorophenyl)amide] | 15.3 (≈ 40 µM)
16 | CC(NC(=O)c1cccc2[nH]c(-c3cccs3)nc12)C(O)c1ccc(Cl)cc1 (centres unmarked) [2-(2-thienyl)-1H-benzimidazole-4-[N-(1-methyl-2-p-chlorophenylhydroxyethyl)]amide] | 5.30 (≈ 12.9 µM)
17 | Cc1cc(C)c(-c2nc3c(C(=O)Nc4ccccc4O)cccc3[nH]2)[nH]1 [2-(3,5-dimethyl-2-pyrrolyl)-1H-benzimidazole-4-(N-o-hydroxyphenyl)amide] | 10.2 (≈ 29.4 µM)
18 | Nc1ccc(NC(=O)c2cccc3[nH]c(-c4c[nH]c5ccccc45)nc23)cc1 [2-(3-indolyl)-1H-benzimidazole-4-(N-p-aminophenyl)amide] | 10.8 (≈ 29.4 µM)
19 | O=C(Nc1ccccc1F)c1cccc2[nH]c(-c3cccnn3)nc12 [2-(3-pyridazinyl)-1H-benzimidazole-4-(N-o-fluorophenyl)amide] | 12.3 (≈ 36.9 µM)
20 | O=C(Nc1ccccc1O)c1cccc2[nH]c(-c3cccnn3)nc12 [2-(3-pyridazinyl)-1H-benzimidazole-4-(N-o-hydroxyphenyl)amide] | 15.2 (≈ 45.9 µM)
